Measured values taken from patent publication US12122761B2, “2-azaspiro[3.4]octane derivatives as M4 agonists” (NOVARTIS AG, priority 2019, dated 2024).

Biological target: T1, Cloned human M1 receptor (CHRM1) stably expressed in HEK293 cells (Homo sapiens, UniProt P11229)
T1 construct: expressed in transfected cells; host or cells: HEK293
T1 sequence (P11229 1-460): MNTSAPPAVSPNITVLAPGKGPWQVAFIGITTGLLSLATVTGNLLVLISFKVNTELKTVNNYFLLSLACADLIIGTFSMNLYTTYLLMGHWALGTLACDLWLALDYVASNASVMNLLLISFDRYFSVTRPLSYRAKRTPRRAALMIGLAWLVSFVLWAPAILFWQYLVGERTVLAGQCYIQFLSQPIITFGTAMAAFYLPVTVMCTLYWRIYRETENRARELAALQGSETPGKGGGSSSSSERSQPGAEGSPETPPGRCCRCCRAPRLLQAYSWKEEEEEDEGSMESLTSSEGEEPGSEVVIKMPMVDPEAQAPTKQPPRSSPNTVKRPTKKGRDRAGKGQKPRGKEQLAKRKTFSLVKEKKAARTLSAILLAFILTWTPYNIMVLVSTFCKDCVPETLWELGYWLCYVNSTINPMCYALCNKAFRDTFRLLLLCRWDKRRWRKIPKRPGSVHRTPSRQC
Experiment: CHRM1 Ca++ Flux Assay (agonist mode, FDSS 7000EX)
Type: cell-based
Conditions: for Emax: HEK293, Percent Activity, read-out: M1 FDSS PA; for EC50: geometric mean if tested more than once
Outline: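 Compounds tested as agonists at 11 concentrations in triplicate, with calcium traces captured over 3 minutes. Cells were HEK293 with stable human CHRM1 expression, plated overnight at 25K/well and loaded with calcium dye. Responses normalized to carbachol EC100 and fitted by four-parameter nonlinear regression.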

What does the source list for O=C(C1COC1)N1CC2(CC[C@@H](N3CCC(c4ccc(F)cc4OC(F)F)CC3)C2)C1 [Example 6B, (R)-(6-(4-(2-(difluoromethoxy)-4-fluorophenyl)piperidin-1-yl)-2-azaspiro[3.4]octan-2-yl)(oxetan-3-yl)methanone]?
Emax: 90%; EC50: 12 nM

What does the source list for CC(C)Oc1cc(F)ccc1C1CCN([C@@H]2CCC3(C2)CN(C(=O)C2COC2)C3)CC1 [Example 6D, (R)-(6-(4-(4-fluoro-2-isopropoxyphenyl)piperidin-1-yl)-2-azaspiro[3.4]octan-2-yl)(oxetan-3-yl)methanone]?
Emax: 18%; EC50: 18 nM

With O=C(N1CC2(CC[C@@H](N3CCC(c4ccccc4C4CCOCC4)CC3)C2)C1)C1(F)CC1 [Example 6E, (R)-(1-fluorocyclopropyl)(6-(4-(2-(tetrahydro-2H-pyran-4-yl)phenyl)piperidin-1-yl)-2-azaspiro[3.4]octan-2-yl)methanone] as the compound, how does the Emax read?
Its Emax is 67%.

And the EC50?
The EC50 was 120 nM.

Which results are given for O=C(C1COC1)N1CC2(CC[C@@H](N3CCC(c4ccccc4OC4CC4)CC3)C2)C1 [Example 7A, (R)-(6-(4-(2-cyclopropoxyphenyl)piperidin-1-yl)-2-azaspiro[3.4]octan-2-yl)(oxetan-3-yl)methanone]?
Emax: 75%; EC50: 9 nM

With CC(C)(F)COc1ccccc1C1CCN([C@@H]2CCC3(C2)CN(C(=O)C2COC2)C3)CC1 [Example 7B, (R)-(6-(4-(2-(2-fluoro-2-methylpropoxy)phenyl)piperidin-1-yl)-2-azaspiro[3.4]octan-2-yl)(oxetan-3-yl)methanone] as the compound, how does the Emax read?
The Emax was 78%.

And the EC50?
Its EC50 is 15 nM.

How did the Emax turn out when O=C(C1COC1)N1CC2(CC[C@@H](N3CCC(c4ccccc4Oc4nccs4)CC3)C2)C1 [Example 7C, (R)-oxetan-3-yl(6-(4-(2-(thiazol-2-yloxy)phenyl)piperidin-1-yl)-2-azaspiro[3.4]octan-2-yl)methanone] was run?
Its Emax is 87%.

And the EC50?
Its EC50 is 11 nM.

With CC(C)(O)CCOc1ccccc1C1CCN([C@@H]2CCC3(C2)CN(C(=O)C2COC2)C3)CC1 [Example 7CC, (R)-(6-(4-(2-(3-hydroxy-3-methylbutoxy)phenyl)piperidin-1-yl)-2-azaspiro[3.4]octan-2-yl)(oxetan-3-yl)methanone] as the compound, how does the Emax read?
Its Emax is 94%.

And the EC50?
Its EC50 is 6 nM.

What does the source list for N#CCCOc1ccccc1C1CCN([C@@H]2CCC3(C2)CN(C(=O)C2COC2)C3)CC1 [Example 7D, (R)-3-(2-(1-(2-(oxetane-3-carbonyl)-2-azaspiro[3.4]octan-6-yl)piperidin-4-yl)phenoxy)propanenitrile]?
Emax: 114%; EC50: 3 nM

What does the source list for O=C(C1COC1)N1CC2(CC[C@@H](N3CCC(c4ccccc4OCCOC(F)(F)F)CC3)C2)C1 [Example 7DD, (R)-oxetan-3-yl(6-(4-(2-(2-(trifluoromethoxy)ethoxy)phenyl)piperidin-1-yl)-2-azaspiro[3.4]octan-2-yl)methanone]?
Emax: 86%; EC50: 116 nM

With O=C(C1COC1)N1CC2(CC[C@@H](N3CCC(c4ccccc4OC[C@@H]4CCOC4)CC3)C2)C1 [Example 7E, oxetan-3-yl((R)-6-(4-(2-(((R)-tetrahydrofuran-3-yl)methoxy)phenyl)piperidin-1-yl)-2-azaspiro[3.4]octan-2-yl)methanone] as the compound, how does the Emax read?
Its Emax is 101%.

What about the EC50 of the same compound?
Its EC50 is 46 nM.

For O=C(C1COC1)N1CC2(CC[C@@H](N3CCC(c4ccccc4OCCOC4COC4)CC3)C2)C1 [Example 7EE, (R)-oxetan-3-yl(6-(4-(2-(2-(oxetan-3-yloxy)ethoxy)phenyl)piperidin-1-yl)-2-azaspiro[3.4]octan-2-yl)methanone], which Emax is on record?
Its Emax is 98%.

What about the EC50 of the same compound?
Its EC50 is 73 nM.

Which results are given for CC(C)COc1ccccc1C1CCN([C@@H]2CCC3(C2)CN(C(=O)C2COC2)C3)CC1 [Example 7F, (R)-(6-(4-(2-isobutoxyphenyl)piperidin-1-yl)-2-azaspiro[3.4]octan-2-yl)(oxetan-3-yl)methanone]?
Emax: 75%; EC50: 42 nM

What does the source list for O=C(C1COC1)N1CC2(CC[C@@H](N3CCC(c4ccccc4OC4CCCC4)CC3)C2)C1 [Example 7G, (R)-(6-(4-(2-(cyclopentyloxy)phenyl)piperidin-1-yl)-2-azaspiro[3.4]octan-2-yl)(oxetan-3-yl)methanone]?
Emax: 65%; EC50: 37 nM

How did the Emax turn out when O=C(C1COC1)N1CC2(CC[C@@H](N3CCC(c4ccccc4OCCC(F)(F)F)CC3)C2)C1 [Example 7GG, (R)-oxetan-3-yl(6-(4-(2-(3,3,3-trifluoropropoxy)phenyl)piperidin-1-yl)-2-azaspiro[3.4]octan-2-yl)methanone] was run?
Its Emax is 91%.

And the EC50?
Its EC50 is 39 nM.

With O=C(C1COC1)N1CC2(CC[C@@H](N3CCC(c4ccccc4OC4CCC4)CC3)C2)C1 [Example 7H, (R)-(6-(4-(2-cyclobutoxyphenyl)piperidin-1-yl)-2-azaspiro[3.4]octan-2-yl)(oxetan-3-yl)methanone] as the compound, how does the Emax read?
Its Emax is 71%.

And the EC50?
The EC50 was 9 nM.

With COC(C)(C)COc1ccccc1C1CCN([C@@H]2CCC3(C2)CN(C(=O)C2COC2)C3)CC1 [Example 7HH, (R)-(6-(4-(2-(2-methoxy-2-methylpropoxy)phenyl)piperidin-1-yl)-2-azaspiro[3.4]octan-2-yl)(oxetan-3-yl)methanone] as the compound, how does the Emax read?
The Emax was 82%.

And the EC50?
Its EC50 is 159 nM.

O=C(C1COC1)N1CC2(CC[C@@H](N3CCC(c4ccccc4OCC4CC4)CC3)C2)C1 [Example 7I, (R)-(6-(4-(2-(cyclopropylmethoxy)phenyl)piperidin-1-yl)-2-azaspiro[3.4]octan-2-yl)(oxetan-3-yl)methanone] was tested. Which Emax did it give?
The Emax was 86%.

What about the EC50 of the same compound?
The EC50 was 15 nM.

With O=C(C1COC1)N1CC2(CC[C@@H](N3CCC(c4ccccc4OCC4(C(F)(F)F)CC4)CC3)C2)C1 [Example 7II, (R)-oxetan-3-yl(6-(4-(2-((1-(trifluoromethyl)cyclopropyl)methoxy)phenyl)piperidin-1-yl)-2-azaspiro[3.4]octan-2-yl)methanone] as the compound, how does the Emax read?
The Emax was 89%.

And the EC50?
The EC50 was 103 nM.

What does the source list for O=C(C1COC1)N1CC2(CC[C@@H](N3CCC(c4ccccc4OCC(F)F)CC3)C2)C1 [Example 7JJ, (R)-(6-(4-(2-(2,2-difluoroethoxy)phenyl)piperidin-1-yl)-2-azaspiro[3.4]octan-2-yl)(oxetan-3-yl)methanone]?
Emax: 87%; EC50: 12 nM

CC(C)Oc1ccccc1C1CCN([C@@H]2CCC3(C2)CN(C(=O)C2COC2)C3)CC1 [Example 7K, (R)-(6-(4-(2-isopropoxyphenyl)piperidin-1-yl)-2-azaspiro[3.4]octan-2-yl)(oxetan-3-yl)methanone] was tested. Which Emax did it give?
The Emax was 72%.

And the EC50?
The EC50 was 24 nM.

How did the Emax turn out when O=C(C1COC1)N1CC2(CC[C@@H](N3CCC(c4ccccc4OCCC4COC4)CC3)C2)C1 [Example 7KK, (R)-oxetan-3-yl(6-(4-(2-(2-(oxetan-3-yl)ethoxy)phenyl)piperidin-1-yl)-2-azaspiro[3.4]octan-2-yl)methanone] was run?
Its Emax is 80%.

What about the EC50 of the same compound?
The EC50 was 11 nM.

For CC(C)(O)COc1ccccc1C1CCN([C@@H]2CCC3(C2)CN(C(=O)C2COC2)C3)CC1 [Example 7L, (R)-(6-(4-(2-(2-hydroxy-2-methylpropoxy)phenyl)piperidin-1-yl)-2-azaspiro[3.4]octan-2-yl)(oxetan-3-yl)methanone], which Emax is on record?
Its Emax is 85%.

And the EC50?
Its EC50 is 324 nM.

O=C(C1COC1)N1CC2(CC[C@@H](N3CCC(c4ccccc4OC(F)(F)F)CC3)C2)C1 [Example 12A, (R)-oxetan-3-yl(6-(4-(2-(trifluoromethoxy)phenyl)piperidin-1-yl)-2-azaspiro[3.4]octan-2-yl)methanone] was tested. Which Emax did it give?
The Emax was 79%.

And the EC50?
Its EC50 is 8 nM.
